This passage reports GI50 and TGI results from PubChem BioAssay (NCI).

Among the test systems are SW-620 colon; OVCAR-3 ovarian; SF-539 CNS; NCI-H23 lung; A498 renal; OVCAR-8 ovarian; RXF 393 renal; SK-MEL-2 melanoma; SNB-19 CNS; MCF7 breast.
What all share (assay): NCI-60 cell line screen, 48 h

Each structure is given as a SMILES string.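 Results reflect a 48-hour exposure of cells in 96-well plates to compound at five concentrations. GI50 is the concentration that inhibits growth by half. Definition used: TGI = concentration required for complete inhibition of growth.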

In the case of `CC[O-].CC[O-].O=C1C=C([O-])C(=O)c2ccccc21.O=C1C=C([O-])C(=O)c2ccccc21.[Ti+4]`, the GI50 was 90.5 µM with SW-620 colon; more than 100 µM in the experiment with OVCAR-3 ovarian; 100 µM with SF-539 CNS; 4.43 µM in the experiment with NCI-H23 lung; 22.5 µM in the experiment on A498 renal; more than 100 µM in the experiment on OVCAR-8 ovarian. Besides, the GI50 is more than 100 µM in the experiment with RXF 393 renal, 9.89 µM in the experiment with SK-MEL-2 melanoma and more than 84.5 µM with SNB-19 CNS. In addition, the TGI is more than 100 µM with SW-620 colon; more than 100 µM in the experiment on OVCAR-3 ovarian; more than 100 µM with SF-539 CNS; more than 100 µM with NCI-H23 lung; more than 60.9 µM in the experiment on A498 renal; more than 100 µM in the experiment with OVCAR-8 ovarian. Also, the TGI in the experiment with RXF 393 renal, with SK-MEL-2 melanoma and with SNB-19 CNS was more than 100 µM throughout.
With `CCN(N=O)C1C2(CCCC2)NC(=O)C12CCCC2` (stereo unspecified), the TGI in the experiment on SW-620 colon, with OVCAR-3 ovarian, with SF-539 CNS, in the experiment with NCI-H23 lung, with A498 renal and in the experiment with OVCAR-8 ovarian was more than 100 µM in each case. Besides, the TGI in the experiment with RXF 393 renal and in the experiment with SNB-19 CNS was more than 100 µM throughout.
As for `CCCCCc1cc(/C=C2/N=C(c3ccc[nH]3)C=C2OC)[nH]c1C`, the TGI in the experiment with SW-620 colon came out at 0.206 µM; in the experiment with OVCAR-3 ovarian it was 0.469 µM; in the experiment on MCF7 breast, 0.0988 µM; with SF-539 CNS it was 0.177 µM; in the experiment on NCI-H23 lung it was 0.346 µM; in the experiment on A498 renal it was 0.959 µM. The TGI in the experiment on OVCAR-8 ovarian was determined as 1.25 µM; in the experiment on RXF 393 renal it was 0.197 µM; in the experiment with SNB-19 CNS it was 1.5 µM.
With `COc1ccc2nc3cc([N+](=O)[O-])ccc3c(NCCO)c2c1`, the GI50 in the experiment with SW-620 colon was 4.08 µM; with OVCAR-3 ovarian, 2.41 µM; with MCF7 breast, 1.11 µM; in the experiment with SF-539 CNS, 3.35 µM; in the experiment on NCI-H23 lung, 2.68 µM; in the experiment on A498 renal it was 12.7 µM. For the same molecule, the GI50 was 3.15 µM in the experiment on OVCAR-8 ovarian and 2.96 µM with SNB-19 CNS. In addition, the TGI was determined as 25.7 µM in the experiment with SW-620 colon; 10.2 µM with OVCAR-3 ovarian; 4.17 µM in the experiment with MCF7 breast; 13 µM with SF-539 CNS; 9.59 µM in the experiment on NCI-H23 lung; 32.7 µM with A498 renal. The TGI is 18.8 µM in the experiment with OVCAR-8 ovarian and 11.5 µM with SNB-19 CNS.
For `Cc1[nH]c(=O)n2c(C)nnc2c1C(=O)O`, the TGI with SW-620 colon, with OVCAR-3 ovarian, in the experiment on SF-539 CNS, with NCI-H23 lung, in the experiment on OVCAR-8 ovarian and with RXF 393 renal was more than 100 µM throughout. The molecule also yielded a TGI in the experiment with SK-MEL-2 melanoma of more than 100 µM.
In the case of `NNC(=O)/C(NC(=O)c1ccccc1)=C(\N)c1cccc([N+](=O)[O-])c1`, the TGI in the experiment on SW-620 colon, in the experiment on OVCAR-3 ovarian, with SF-539 CNS, with NCI-H23 lung, in the experiment on A498 renal and in the experiment on OVCAR-8 ovarian was more than 100 µM in each case. Moreover, the TGI in the experiment with RXF 393 renal, in the experiment with SK-MEL-2 melanoma and in the experiment on SNB-19 CNS was more than 100 µM throughout.
On to `OC1(C(Sc2ccccc2)Sc2ccccc2)CCCCCC1`, for which the TGI is more than 100 µM in the experiment with SW-620 colon; 45.7 µM with OVCAR-3 ovarian; 64.9 µM in the experiment on SF-539 CNS; more than 100 µM with NCI-H23 lung; 85.2 µM in the experiment on A498 renal; more than 100 µM with OVCAR-8 ovarian. Also, the TGI with SK-MEL-2 melanoma was found to be 41.2 µM; in the experiment on SNB-19 CNS, 77.4 µM.
Turning to `CC(=O)OC(C(=O)[O][Ge]([CH3])([CH3])[CH3])c1ccccc1` (stereo unspecified), the GI50 in the experiment on SW-620 colon, in the experiment on OVCAR-3 ovarian, with SF-539 CNS, in the experiment on NCI-H23 lung, with A498 renal and in the experiment with OVCAR-8 ovarian was more than 100 µM throughout. The GI50 with RXF 393 renal was 0.264 µM; in the experiment with SNB-19 CNS, more than 100 µM. Moreover, the TGI with SW-620 colon, in the experiment with OVCAR-3 ovarian, in the experiment with SF-539 CNS, with NCI-H23 lung, with A498 renal and in the experiment with OVCAR-8 ovarian was more than 100 µM throughout. Also, the TGI in the experiment on RXF 393 renal is 7.09 µM; with SNB-19 CNS it was more than 100 µM.
On to `CCCCCCCCCN=C(N)c1ccc(N2CCN(c3ccc(C(N)=NCCCCCCCCC)cc3)CC2)cc1`, for which the GI50 in the experiment on SW-620 colon is 1.52 µM; in the experiment with OVCAR-3 ovarian, 1.1 µM; in the experiment with MCF7 breast, 0.704 µM; with SF-539 CNS it was 2 µM; in the experiment with NCI-H23 lung, 1.67 µM; with OVCAR-8 ovarian, 1.62 µM. Besides, the GI50 in the experiment on RXF 393 renal is 1.04 µM; in the experiment on SK-MEL-2 melanoma, 2.88 µM; in the experiment with SNB-19 CNS, 2.29 µM. Besides, the TGI was 3.55 µM in the experiment on SW-620 colon; 3.83 µM in the experiment with OVCAR-3 ovarian; 1.54 µM in the experiment with MCF7 breast; 4.48 µM in the experiment with SF-539 CNS; 6.37 µM in the experiment with NCI-H23 lung; 5.95 µM with OVCAR-8 ovarian. Besides, the TGI in the experiment on RXF 393 renal is 3.01 µM; with SK-MEL-2 melanoma, more than 50 µM; in the experiment on SNB-19 CNS, 15.8 µM.
Turning to `COc1cc(-c2oc3c(OC)c(O)c(OC)c(O)c3c(=O)c2OC)cc(OC)c1OC`, the TGI in the experiment with SW-620 colon is more than 100 µM; with OVCAR-3 ovarian, 95.9 µM; in the experiment on MCF7 breast it was more than 100 µM; in the experiment on SF-539 CNS, more than 100 µM; with NCI-H23 lung, more than 100 µM; with A498 renal, more than 100 µM. The TGI with OVCAR-8 ovarian, in the experiment on SK-MEL-2 melanoma and in the experiment on SNB-19 CNS was more than 100 µM throughout.
Consider `CC1=C2CC[C@@]3(C)C(=CCC3O)C2(C)CCC1=O` (stereo partly specified), for which the TGI with SW-620 colon, in the experiment with OVCAR-3 ovarian, in the experiment on SF-539 CNS, with A498 renal, in the experiment on OVCAR-8 ovarian and in the experiment with RXF 393 renal was more than 100 µM in each case. Moreover, in the experiment on SNB-19 CNS, the TGI is more than 100 µM.
With `Cc1ccc2ncnc(N(C)C3CCCCC3)c2c1`, the GI50 was 23.3 µM in the experiment on OVCAR-3 ovarian; 41.3 µM with MCF7 breast; 26.5 µM in the experiment with NCI-H23 lung; 77.1 µM in the experiment with A498 renal; 14.6 µM in the experiment with OVCAR-8 ovarian; 3.84 µM in the experiment with RXF 393 renal. Also, the GI50 was 37.5 µM in the experiment on SK-MEL-2 melanoma and 59.5 µM with SNB-19 CNS. For the same molecule, the TGI in the experiment on OVCAR-3 ovarian is 54.5 µM; with MCF7 breast, more than 100 µM; in the experiment with NCI-H23 lung, 74.4 µM; in the experiment on A498 renal, more than 100 µM; with OVCAR-8 ovarian, 63.8 µM; in the experiment on RXF 393 renal, 17.9 µM. In addition, the TGI with SK-MEL-2 melanoma and in the experiment on SNB-19 CNS was more than 100 µM in each case.
